# Test results published in patent US10786451B2, “Process for preparing a dry powder formulation comprising an anticholinergic, a corticosteroid and a beta-adrenergic” (CHIESI FARMACEUTICI S.P.A., priority 2015, dated 2020).
# Columns and labels:
# [1] = Particle size (volume diameter) by laser diffraction, Malvern apparatus; assay type: physicochemical; settings: micronized material as used
# Experimental: The size of the particles active is determined by measuring the characteristic equivalent sphere diameter, known as volume diameter, by laser diffraction. In the reported examples, the volume diameter has been determined using a Malvern apparatus. However, other equivalent apparatus may be used by the skilled person in the art.
# [2] = Uniformity of distribution of the active ingredients in the blend (12 samples, HPLC); assay type: physicochemical
# Experimental: In the context of the present application the flow properties were tested by measuring the flow rate through an orifice according to the method described in the European Pharmacopeia (Eur. Ph.) 8.6, 8th Edition, which is incorporated herein by reference in its entirety. […] It is usually determined according to known methods, for instance by taking samples from different parts of the powder and testing the component by HPLC or other equivalent analytical methods. The uniformity of distribution of the active ingredients was evaluated by withdrawing 12 samples from different parts of the blend and evaluated by HPLC.
# [3] = Aerosol performance by Next Generation Impactor (NGI) from multidose dry powder inhaler; assay type: physicochemical
# Source text: With the term “mid FPF” is defined as the fraction of delivered dose having a particle size comprised between […].
# After aerosolization of 3 doses from the inhaler device, the NGI apparatus was disassembled and the amounts of drug deposited in the stages were recovered by washing with a solvent mixture and then quantified by High-Performance Liquid Chromatography (HPLC)
# [4] = formulations disclosed Table 3 of WO 2015/004243; cited from earlier work
# [5] = Batch CY (Cyclomix), reference formulation per WO 2015/004243
# [6] = Batch MF (mechano-fusion), reference formulation per WO 2015/004243
# [7] = powder formulation of Example 2
# [8] = powder formulation of Example 2, NGI, 3 doses
# [9] = powder formulation of Example 2, between 2.0 and 5.0 micron
# [10] = powder formulation of Example 2, particle size equal to or lower than 5.0 micron
# [11] = powder formulation of Example 3
# [12] = powder formulation of Example 3, NGI
# [13] = powder formulation of Example 3, between 2.0 and 5.0 micron
# [14] = powder formulation of Example 3, particle size equal to or lower than 5.0 micron
structure (smiles),measurement,setting,value
"CCC(=O)OCC(=O)[C@@]1(OC(=O)CC)[C@@H](C)C[C@H]2[C@@H]3CCC4=CC(=O)C=C[C@]4(C)[C@@]3(Cl)[C@@H](O)C[C@@]21C [BDP, beclometasone dipropionate]",particle size d(v0.1),[1],0.7 micron
same,particle size d(v0.5),[1],1.5 micron
same,particle size d(v0.9),[1],2.8 micron
same,Uniformity of distribution,"[2]; powder formulation of Example 2 (6 μg FF, 100 μg BDP, 12.5 μg GB per 10 mg carrier), mean value, RSD in next column",101.8
same,Uniformity of distribution,"[2]; powder formulation of Example 3 (6 μg FF, 100 μg BDP, 25 μg GB per 10 mg carrier)",100.2
same,Delivered Dose,[3]; [5],90.6 µg
same,Extrafine Particle Fraction <2 μm,[3]; [5],53.9%
same,Extrafine Particle Mass <2 μm,[3]; [5],48.8 µg
same,Fine Particle Fraction,[3]; [5],71.2%
same,Fine Particle Mass,[3]; [5],64.5 µg
same,MMAD,[3]; [5],1.08 μm
same,Mid Fine Particle Mass,[3]; [5],15.7 µg
same,Mid Fine particle Fraction,[3]; [5],17.3%
same,Delivered Dose,[3]; [6],95.7 µg
same,Extrafine Particle Fraction <2 μm,[3]; [6],52.2%
same,Extrafine Particle Mass <2 μm,[3]; [6],50.0 µg
same,Fine Particle Fraction,[3]; [6],69.9%
same,Fine Particle Mass,[3]; [6],66.9 µg
same,MMAD,[3]; [6],1.13 μm
same,Mid Fine Particle Mass,[3]; [6],16.9 µg
same,Mid Fine particle Fraction,[3]; [6],17.7%
same,Extrafine Particle Fraction <1 μm,[3]; [7],28.7%
same,Extrafine Particle Fraction <2 μm,[3]; [7],51.4%
same,Extrafine Particle Mass <1 μm,[3]; [7],27.9 µg
same,Extrafine Particle Mass <2 μm,[3]; [7],50 µg
same,Fine Particle Fraction,[3]; [7],69.4%
same,MMAD,[3]; [7],1.25 μm
same,Delivered Dose,[3]; [8],97.4 µg
same,Mid Fine Particle Mass,[3]; [9],17.6 µg
same,Mid Fine particle Fraction,[3]; [9],18%
same,Fine Particle Mass,[3]; [10],67.6 µg
same,Extrafine Particle Fraction <1 μm,[3]; [11],16.2%
same,Extrafine Particle Fraction <2 μm,[3]; [11],40.3%
same,Extrafine Particle Mass <1 μm,[3]; [11],13.1 µg
same,Extrafine Particle Mass <2 μm,[3]; [11],32.7 µg
same,Fine Particle Fraction,[3]; [11],61.8%
same,MMAD,[3]; [11],1.62 μm
same,Delivered Dose,[3]; [12],80.9 µg
same,Mid Fine Particle Mass,[3]; [13],17.3 µg
same,Mid Fine particle Fraction,[3]; [13],21.4%
same,Fine Particle Mass,[3]; [14],50.0 µg
"C[N+]1(C)CCC(OC(=O)C(O)(c2ccccc2)C2CCCC2)C1 (centres unmarked) [GB, Glycopyrronium bromide]",mid FPF,[4],about 20%
same,particle size d(v0.1),[1],0.39 micron
same,particle size d(v0.5),[1],1.91 micron
same,particle size d(v0.9),[1],4.77 micron
same,Delivered Dose,[3]; [5],11.6 µg
same,Extrafine Particle Fraction <2 μm,[3]; [5],34.5%
same,Extrafine Particle Mass <2 μm,[3]; [5],4.0 µg
same,Fine Particle Fraction,[3]; [5],53.8%
same,Fine Particle Mass,[3]; [5],6.6 µg
same,MMAD,[3]; [5],1.78 μm
same,Mid Fine Particle Mass,[3]; [5],2.6 µg
same,Mid Fine particle Fraction,[3]; [5],22.4%
same,Delivered Dose,[3]; [6],11.9 µg
same,Extrafine Particle Fraction <2 μm,[3]; [6],33.6%
same,Extrafine Particle Mass <2 μm,[3]; [6],4.0 µg
same,Fine Particle Fraction,[3]; [6],57.2%
same,Fine Particle Mass,[3]; [6],6.4 µg
same,MMAD,[3]; [6],1.75 μm
same,Mid Fine Particle Mass,[3]; [6],2.5 µg
same,Mid Fine particle Fraction,[3]; [6],21.0%
same,Extrafine Particle Fraction <1 μm,[3]; [7],15.4%
same,Extrafine Particle Fraction <2 μm,[3]; [7],37.6%
same,Extrafine Particle Mass <1 μm,[3]; [7],1.8 µg
same,Extrafine Particle Mass <2 μm,[3]; [7],4.39 µg
same,Fine Particle Fraction,[3]; [7],67.2%
same,MMAD,[3]; [7],1.92 μm
same,Delivered Dose,[3]; [8],11.66 µg
same,Mid Fine Particle Mass,[3]; [9],3.46 µg
same,Mid Fine particle Fraction,[3]; [9],29.6%
same,Mid Fine particle Fraction,"[3]; powder formulation of Example 2, between 2.0 and 5.0 micron, listed as glycopyrrolate",about 30%
same,Fine Particle Mass,[3]; [10],7.85 µg
same,Extrafine Particle Fraction <1 μm,[3]; [11],8.7%
same,Extrafine Particle Fraction <2 μm,[3]; [11],27.4%
same,Extrafine Particle Mass <1 μm,[3]; [11],1.75 µg
same,Extrafine Particle Mass <2 μm,[3]; [11],5.49 µg
same,Fine Particle Fraction,[3]; [11],57.1%
same,MMAD,[3]; [11],2.15 μm
same,Delivered Dose,[3]; [12],20.03 µg
same,Mid Fine Particle Mass,[3]; [13],5.94 µg
same,Mid Fine particle Fraction,[3]; [13],29.7%
same,Mid Fine particle Fraction,"[3]; powder formulation of Example 3, between 2.0 and 5.0 micron, listed as glycopyrrolate",about 30%
same,Fine Particle Mass,[3]; [14],11.43 µg
"O.OC[C@H]1O[C@@H](O[C@H]2[C@H](O)[C@@H](O)[C@@H](O)O[C@@H]2CO)[C@H](O)[C@@H](O)[C@H]1O [Micronized alpha-lactose monohydrate, alpha-lactose monohydrate]",particle size d(v0.1),[1],1.7 micron
same,particle size d(v0.5),[1],4.3 micron
same,particle size d(v0.9),[1],9.8 micron
